Measured values as given in patent publication US9896479B2, “Functionalized naphthalene fluorophores” (Kay M. Brummond, priority 2012, dated 2018).

How the values were obtained:
Format in all cases: physicochemical
[1] = Fluorescence emission spectra (emission maxima, Stokes and bathochromic shifts); settings: for Bathochromic shift: across Toluene, CH2Cl2, DMSO (Table 3)
From the text: (§1) All commercially available compounds were purchased from Aldrich Chemical Co., GFS Chemicals, Strem Chemicals, Acros Organics, Alfa Aesar, and Advanced Chemtech and used as received, except for p-toluenesulfonyl hydrazide, which was recrystallized from methanol. Amines were purchased from Aldrich Chemical Co. as purified by redistillation and used as received. Tetrahydrofuran (THF), diethyl ether (Et2O), and dichloromethane (CH2Cl2) were purified by passing through alumina using the Sol-Tek ST-002 solvent purification system. Acetonitrile (MeCN) and toluene were freshly distilled from CaH2 prior to use. Benzene was freshly distilled from sodium/benzophenone prior to use Anhydrous N,N-dimethylformamide (DMF), 1,2-dichloroethane (DCE), and 1,4-dioxane were purchased and used as received from Aldrich Chemical Co. Purification of the compounds by flash column chromatography was performed using silica gel (32-63 μm particle size, 60 Å pore size) purchased from Silicycle, or by using a Biotage Horizon flash purification system with either Biotage SNAP KP-SIL silica cartridges, or Teledyne ISCO RediSep Rf normal phase disposable flash columns (40-60 micron). TLC analyses were performed on EMD Chemicals Silica Gel 60 F254 glass plates (250 μm thickness). ^1H NMR and ^13C NMR spectra were recorded on Bruker Avance 300 MHz, 500 MHz, or 600 MHz spectrometers. Spectra were referenced to residual chloroform (7.27 ppm, ^1H, 77.0 ppm, ^13C) or 1,2-dichlorobenzene (6.93 ppm, ^1H, 127.19 ppm, ^13C). Chemical shifts are reported in ppm, multiplicities are indicated by s (singlet), d (doublet), t (triplet), q (quartet), p (pentet), and m (multiplet). Coupling constants, J, are reported in hertz (Hz). All NMR spectra were obtained at room temperature unless otherwise specified. IR spectra were obtained using a Nicolet Avatar E.S.P. 360 FT-IR. EI mass spectroscopy was performed on a Waters Micromass GCT high resolution mass spectrometer. ES mass spectroscopy was performed on a Waters Q-TOF Ultima API, Micromass UK Limited high resolution mass spectrometer. GC mass spectrometry was performed on a Shimadzu GCMS-17A/QP5050A spectrometer. All microwave-mediated reactions were carried out using a Biotage Initiator™ Exp microwave synthesizer. The microwave parameters were set to variable power, constant temperature, with the fixed hold time set to on. The microwave reactions were carried out in 0.2-0.5 mL, 0.5-2 mL, 2-5 mL, or 10-20 mL Biotage microwave vials. […] Absorption and fluorescence spectra were recorded on Lambda 9 spectrophotometer (Perkin Elmer) and FluoroMax-3 spectrofluorometer (Jobin Yvon, Horiba), respectively. Fluorescence quantum yields were determined by taking Prodan in DMSO (quantum yield, QY=91%) as a reference. The quantum yield values were corrected for the solvent refractive index. For spectroscopic measurements, 10^−5 M solutions of dyes in 10 mm quartz-cuvettes were used (excitation wavelength was 334 nm; slits open to 2 nm).

[2] = Absorption spectra (absorption maxima) of dyes in organic solvents
From the text: as §1

[3] = Fluorescence quantum yield vs Prodan in DMSO as reference; settings: for QY (fluorescence quantum yield vs Prodan in DMSO (91%)): excitation 334 nm, 10^-5 M
From the text: as §1

1-(6-(Dimethylamino)-2,3-dihydro-1H-cyclopenta[b]naphthalen-4-yl)ethanone [Compound 10]
Stokes shift ([1]; in DCM): 207 nm | emission maximum ([1]; in dichloromethane (DCM)): 531 nm | absorption maximum ([2]; in DCM): 324 nm

1-(8-(dimethylamino)-2,3-dihydro-1H-cyclopenta[b]naphthalen-4-yl)ethanone [Compound 12]
absorption and emission maxima compared with fluorophore 102a ([1]; in DCM): comparable to those observed for fluorophore 102a

CC(=O)c1c2c(cc3c(N(C)C)cccc13)CC(CO)(CO)C2 [7a]
emission maximum ([1]; in dichloromethane (DCM)): 567 nm

CN(C)c1cccc2c(C(=O)C(C)(C)C)c3c(cc12)CC(CO)(CO)C3 [7b]
SS (Stokes shift) ([1]; CH2Cl2 (Table 3)): 210 nm | λem (emission maxima) ([1]; CH2Cl2 (Table 3)): 530 nm | SS (Stokes shift) ([1]; DMSO (Table 3)): 241 nm | λem (emission maxima) ([1]; DMSO (Table 3)): 561 nm | SS (Stokes shift) ([1]; Toluene (Table 3)): 175 nm | λem (emission maxima) ([1]; Toluene (Table 3)): 493 nm | Bathochromic shift [1]: 68 nm | λabs (absorption maxima) ([2]; CH2Cl2 (Table 3)): 320 nm | λabs (absorption maxima) ([2]; DMSO (Table 3)): 320 nm | λabs (absorption maxima) ([2]; Toluene (Table 3)): 318 nm

CN(C)c1ccc2cc3c(c(-c4ccc(CO)cc4)c2c1)C(=O)CC3 [15b]
SS (Stokes shift) ([1]; CH2Cl2 (Table 3)): 110 nm | λem (emission maxima) ([1]; CH2Cl2 (Table 3)): 537 nm | SS (Stokes shift) ([1]; DMSO (Table 3)): 147 nm | λem (emission maxima) ([1]; DMSO (Table 3)): 574 nm | SS (Stokes shift) ([1]; Toluene (Table 3)): 80 nm | λem (emission maxima) ([1]; Toluene (Table 3)): 504 nm | Bathochromic shift [1]: 70 nm | λabs (absorption maxima) ([2]; CH2Cl2 (Table 3)): 427 nm | λabs (absorption maxima) ([2]; DMSO (Table 3)): 427 nm | λabs (absorption maxima) ([2]; Toluene (Table 3)): 424 nm

CC(=O)c1c2c(cc3ccccc13)CCC2 [Compound 6a, 1-(2,3-Dihydro-1H-cyclopenta[b]naphthalen-4-yl)ethanone]
emission maximum ([1]; in dichloromethane (DCM)): 566 nm

CC(=O)c1c2c(cc3ccc(Cl)cc13)CCC2 [Compound 6b, 1-(6-Chloro-2,3-dihydro-1H-cyclopenta[b]naphthalen-4-yl)ethanone]
emission maximum ([1]; in dichloromethane (DCM)): 527 nm

CC(=O)c1c2c(cc3c(Cl)cccc13)CCC2 [Compound 6c, 1-(8-Chloro-2,3-dihydro-1H-cyclopenta[b]naphthalen-4-yl)ethanone]
emission maximum ([1]; in dichloromethane (DCM)): 564 nm

CC(=O)c1c2c(cc3cc(Cl)ccc13)CCC2 [Compound 6d, 1-(7-chloro-2,3-dihydro-1H-cyclopenta[b]naphthalen-4-yl)ethanone]
emission maximum ([1]; in dichloromethane (DCM)): 581 nm

CC(=O)c1c2c(cc3ccc(N(C)C)cc13)CCC2 [Compound 10, 1-(6-(Dimethylamino)-2,3-dihydro-1H-cyclopenta[b]naphthalen-4-yl)ethanone]
QY (fluorescence quantum yield vs Prodan in DMSO (91%)) ([3]; 1,4-Dioxane): 46% | QY (fluorescence quantum yield vs Prodan in DMSO (91%)) ([3]; Acetonitrile): 99% | QY (fluorescence quantum yield vs Prodan in DMSO (91%)) ([3]; CH2Cl2): 99% | QY (fluorescence quantum yield vs Prodan in DMSO (91%)) ([3]; CHCl3): 77% | QY (fluorescence quantum yield vs Prodan in DMSO (91%)) ([3]; Cyclohexane): 45% | QY (fluorescence quantum yield vs Prodan in DMSO (91%)) ([3]; DMSO): 85% | QY (fluorescence quantum yield vs Prodan in DMSO (91%)) ([3]; EtOH): 5% | QY (fluorescence quantum yield vs Prodan in DMSO (91%)) ([3]; THF): 75% | QY (fluorescence quantum yield vs Prodan in DMSO (91%)) ([3]; Toluene): 62% | quantum yield ([3]; in dichloroethane): 99% | λem (maximum emission) ([1]; 1,4-Dioxane): 495 nm | λem (maximum emission) ([1]; Acetonitrile): 529 nm | λem (maximum emission) ([1]; CH2Cl2): 510 nm | λem (maximum emission) ([1]; CHCl3): 516 nm | λem (maximum emission) ([1]; Cyclohexane): 466 nm | λem (maximum emission) ([1]; DMSO): 536 nm | λem (maximum emission) ([1]; EtOH): 578 nm | λem (maximum emission) ([1]; THF): 497 nm | λem (maximum emission) ([1]; Toluene): 490 nm | emission maximum ([1]; in methylene chloride): ~510 nm | λabs (maximum absorption) ([2]; 1,4-Dioxane): 376 nm | λabs (maximum absorption) ([2]; Acetonitrile): 375 nm | λabs (maximum absorption) ([2]; CH2Cl2): 377 nm | λabs (maximum absorption) ([2]; CHCl3): 377 nm | λabs (maximum absorption) ([2]; Cyclohexane): 373 nm | λabs (maximum absorption) ([2]; DMSO): 377 nm | λabs (maximum absorption) ([2]; EtOH): 377 nm | λabs (maximum absorption) ([2]; THF): 377 nm | λabs (maximum absorption) ([2]; Toluene): 376 nm | absorption maxima ([2]; dichloroethane): 377 nm | absorption maximum ([2]; in methylene chloride): ~375 nm

CC(=O)c1c2c(cc3cc(N(C)C)ccc13)CCC2 [Compound 11, 1-(7-(dimethylamino)-2,3-dihydro-1H-cyclopenta[b]naphthalen-4-yl)ethanone]
QY (fluorescence quantum yield vs Prodan in DMSO (91%)) ([3]; Acetonitrile): 18% | QY (fluorescence quantum yield vs Prodan in DMSO (91%)) ([3]; CH2Cl2): 82% | QY (fluorescence quantum yield vs Prodan in DMSO (91%)) ([3]; CHCl3): 41% | QY (fluorescence quantum yield vs Prodan in DMSO (91%)) ([3]; Cyclohexane): 8% | QY (fluorescence quantum yield vs Prodan in DMSO (91%)) ([3]; DMSO): 37% | QY (fluorescence quantum yield vs Prodan in DMSO (91%)) ([3]; EtOH): 3% | QY (fluorescence quantum yield vs Prodan in DMSO (91%)) ([3]; THF): 34% | QY (fluorescence quantum yield vs Prodan in DMSO (91%)) ([3]; Toluene): 25% | λem (maximum emission) ([1]; Acetonitrile): 545 nm | λem (maximum emission) ([1]; CH2Cl2): 509 nm | λem (maximum emission) ([1]; CHCl3): 514 nm | λem (maximum emission) ([1]; Cyclohexane): 445 nm | λem (maximum emission) ([1]; DMSO): 558 nm | λem (maximum emission) ([1]; EtOH): 605 nm | λem (maximum emission) ([1]; THF): 505 nm | λem (maximum emission) ([1]; Toluene): 481 nm | emission maximum ([1]; in methylene chloride): ~510 nm | λabs (maximum absorption) ([2]; Acetonitrile): 370 nm | λabs (maximum absorption) ([2]; CH2Cl2): 372 nm | λabs (maximum absorption) ([2]; CHCl3): 373 nm | λabs (maximum absorption) ([2]; Cyclohexane): 363 nm | λabs (maximum absorption) ([2]; DMSO): 374 nm | λabs (maximum absorption) ([2]; EtOH): 374 nm | λabs (maximum absorption) ([2]; THF): 370 nm | λabs (maximum absorption) ([2]; Toluene): 368 nm | absorption maximum ([2]; in methylene chloride): ~375 nm

CC(=O)c1c2c(cc3ccc(N4CCCC4)cc13)CCC2 [Compound 13, 1-(6-(pyrrolidin-1-yl)-2,3-dihydro-1H-cyclopenta[b]naphthalen-4-yl)ethanone]
SS (Stokes shift) ([1]; CH2Cl2 (Table 3)): 243 nm | λem (emission maxima) ([1]; CH2Cl2 (Table 3)): 568 nm | SS (Stokes shift) ([1]; DMSO (Table 3)): 271 nm | λem (emission maxima) ([1]; DMSO (Table 3)): 598 nm | SS (Stokes shift) ([1]; Toluene (Table 3)): 206 nm | λem (emission maxima) ([1]; Toluene (Table 3)): 526 nm | Bathochromic shift [1]: 72 nm | absorption and emission maxima compared with fluorophore 102a ([1]; in DCM): comparable to those observed for fluorophore 102a | λabs (absorption maxima) ([2]; CH2Cl2 (Table 3)): 325 nm | λabs (absorption maxima) ([2]; DMSO (Table 3)): 327 nm | λabs (absorption maxima) ([2]; Toluene (Table 3)): 320 nm
